Experimental data from patent EP0517347A1, “New combinations for the treatment of Parkinsons disease, containing NMDA-antagonists” (SCHERING AKTIENGESELLSCHAFT, priority 1991, dated 1992).

Columns and labels:
[1] = system: unilateral Substantia nigralädierten Ratten; experiment: Induction of contralateral rotations in rats with unilateral 6-OHDA lesion of the substantia nigra (automated rotometer); assay type: in vivo, Wistar-Ratten
Procedure: Die erfindungsgemäße Wirkung wird am Beispiel des CPP dargestellt: Auslösung von kontralateralen Rotationen an unilateral Substantia nigralädierten Ratten. Männliche Wistar-Ratten wurden 8 Monate vor dem Experiment durch Injektion von 16 µg 6-Hydroxydopamin (6-OHDA) in die linke Substantia nigra lädiert. Die Messung der Rotationen erfolgte in automatisierten Rotometern. Die Tiere wurden in Plexiglas-Halbschalen (Durchmesser 40 cm) gesetzt und mechanisch mit einem Winkelschrittgeber verbunden. Die Bewegungen mit und entgegen dem Uhrzeigersinn wurden getrennt in 10-Minuten-Intervallen für 2 Stunden erfasst.
Die Ergebnisse dieser Versuche lassen sich wie folgt zusammenfassen: Die mit Lösungsmitteln behandelten Tiere zeigen kaum spontane Rotationen.

[2] = system: MPTP-behandelten Pinselohräffchen; experiment: Experimental Parkinson syndrome induced by the neurotoxin MPTP in marmosets; assay type: in vivo
Procedure: In gleicher Weise wurden die erfindungsgemäßen Verbindungen am Pinselohräffchen untersucht, bei denen durch das Neurotoxin MPTP ein experimentelles Parkinsonsyndrom erzeugt wurde.
Im gleichen Modell wurde CPP (0.1, 0.39, 1.56 mg/kg i.p.) mit den direkten Dopaminagonisten Apomorphin (0.05 mg/kg i.p. ) oder Lisurid (0.1 mg/kg i.p. ) geprüft (Abb. 3 und 4).

Compound | durch L-Dopa induzierte Rotationen ([1]; CPP 0,025, 0,39, 1,56 and 6,25 mg/kg i.p. added to L-Dopa 25 mg/kg i.p. + Benserazid 100 mg/kg i.p., Abb. 1) | Zahl der Rotationen in 2 Stunden ([1]; highest dose of CPP (6,25 mg/kg i.p.) plus L-Dopa + Benserazid, compared with L-Dopa treatment, Abb. 1) | Wirkung von L-Dopa und Benserazid ([2]; CPP 0,1, 0,39, 1,56 mg/kg i.p. added to L-Dopa 20 mg/kg i.p. + Benserazid 20 mg/kg i.p., Abb. 2) | kombinierte Behandlung mit Apomorphin ([2]; CPP 0.1, 0.39, 1.56 mg/kg i.p. with Apomorphin 0.05 mg/kg i.p., analysis of variance and Tukey test, p < 0.0.1, Abb. 3 und 4) | kombinierte Behandlung mit Lisurid ([2]; CPP 0.1, 0.39, 1.56 mg/kg i.p. with Lisurid 0.1 mg/kg i.p., analysis of variance and Tukey test, p < 0.0.1, Abb. 3 und 4) | Rotationsbewegungen ([1]; L+Dopa 25 mg/kg i.p. and Benserazid 100 mg/kg i.p., without CPP, 6-OHDA-lesioned rats)
O=C(O)C1CN(CCCP(=O)(O)O)CCN1 (racemic) [CPP, 3-((±)-2-carboxy-piperazin-4-yl)-propyl-1-phosphonsäure] | dosisabhängig verstärkt | signifikant von der L-Dopa Behandlung verschieden | dosisabhängig verstärkt | signifikantem Synergismus | signifikantem Synergismus | –
N[C@@H](Cc1ccc(O)c(O)c1)C(=O)O [L+Dopa] | – | – | – | – | – | leichte Rotationsbewegungen
